Assay results reported in patent US8084621B2, “3-Pyrrolo[b]cyclohexylene-2-dihydroindolinone derivatives and uses thereof” (Jiangsu Simcere Pharmaceutical R&D Co. Ltd., priority 2006, dated 2011).

Key:
Assay type in all cases: cell-based
[1] = system: Human Pancreatic Carcinoma Cell Line (BXPC-3); assay: Tumor cell proliferation assay (MTT), BXPC-3; details: for inhibition at 10 µM: concentration of 10^−5 mol/L, preliminary screening, 72 hours, read-out: Inhibition rate % BXPC-3; for IC50: secondary screening, 48 hours
[2] = system: Human Ovarian Cancer Cell Line (SK-OV-3); assay: Tumor cell proliferation assay (MTT), SK-OV-3; details: for inhibition at 10 µM: concentration of 10^−5 mol/L, preliminary screening, 72 hours, read-out: Inhibition rate % SK-OV-3; for IC50: secondary screening, 48 hours
[3] = system: Human Pancreatic Carcinoma Cells (PANC-1); assay: Tumor cell proliferation assay (MTT), PANC-1; details: for inhibition at 10 µM: concentration of 10^−5 mol/L, preliminary screening, 72 hours, read-out: Inhibition rate % PANC-1; for IC50: secondary screening, 48 hours
[4] = system: Human Non-Small Cell Lung Cancer Cell Line (A549); assay: Tumor cell proliferation assay (MTT), A549; details: for inhibition at 10 µM: concentration of 10^−5 mol/L, preliminary screening, 72 hours, read-out: Inhibition rate % A549; for IC50: secondary screening, 48 hours
Summary of the method: A

Row | SMILES | inhibition at 10 µM [1] [%] | IC50 [1] [µM] | inhibition at 10 µM [2] [%] | IC50 [2] [µM] | inhibition at 10 µM [3] [%] | IC50 [3] [µM] | inhibition at 10 µM [4] [%] | IC50 [4] [µM]
1 | Cc1[nH]c2c(c1C(=O)NCC(O)CN1CCCC1)CCC/C2=C1/C(=O)Nc2ccc(F)cc21 (stereo not drawn) [I-71, N-(2-hydroxy-3-(pyrrolidin-1-yl)propyl)-2-methyl-7-[1,2-dihydro-5-fluoro-2-oxo-3H-indol-(Z)-3-ylidene]-4,5,6,7-tetrahydro-1H-indole-3-carboxamide] | 98.9 | 2.73 | 91.7 | 1.54 | 97.4 | 1.48 | 71.7 | 2.35
2 | Cc1[nH]c2c(c1C(=O)NCC(O)CN1CCN(C)CC1)CCC/C2=C1/C(=O)Nc2ccc(F)cc21 (stereo not drawn) [I-77, N-[2-hydroxy-3-(4-methylpiperazin-1-yl)propyl]-2-methyl-7-[1,2-dihydro-5-fluoro-2-oxo-3H-indol-(Z)-3-ylidene]-4,5,6,7-tetrahydro-1H-indole-3-carboxamide] | 45.9 | 8.7 | 77.3 | 6.4 | 61.9 | 5.53 | 50.8 | 7.12
3 | CCN(CC)CCNC(=O)c1c(C)[nH]c2c1CCC/C2=C1/C(=O)Nc2ccc(F)cc21 [I-2, N-(2-(diethylamino)ethyl)-2-methyl-7-[1,2-dihydro-5-fluoro-2-oxo-3H-indol-(Z)-3-ylidene]-4,5,6,7-tetrahydro-1H-indole-3-carboxamide] | 79.4 | 0.52 | 92.2 | – | 70.6 | – | 10.2 | –
